Test results as given in patent publication US7994125B2, “Stem cell factor for preventing chemotherapy-induced depletion of blood cells” (Istituto Superiore Di Sanita, priority 2003, dated 2011).

How the values were obtained:
[1] = system: megakaryocytic precursors; assay: Chemotherapy-induced cell death of megakaryocytic cells; type: cell-based; settings: for sensitivity of mature polynucleated megakaryocytic precursors versus day 6 immature precursors: Etoposide 4 micromolar, Daunorubicin 0.5 micromolar or Vincristine 0.5 micromolar
Description: Decreased platelet number is a common side effect of chemotherapy. In a separate set of experiments, the protective effect of SCF on chemotherapy-induced cell death was evaluated on megakaryocytic cells, which derive from hematopoietic stem and progenitor cells and give rise to platelets. […] We pretreated immature megakaryocytic precursors at day 4 of differentiation with SCF for 48 hours before exposure to chemotherapeutic agents. SCF was maintained during the exposure to chemotherapic agents.

[2] = system: CD34+ progenitors; assay: Chemosensitivity of CD34+ progenitors, cell death by ethidium bromide/acridine orange staining; type: cell-based, human; settings: CD34+ cells; 24 hours; 1.5 μg/ml cisplatin or 50 ng/ml camptothecin; standard erythroid medium
Description: (§1) FIG. 1. Chemosensitivity of CD34^+ progenitors and erythroid precursors.
(§2) Unilineage hematopoietic differentiation in bulk and single cell culture. Stem Cells. 1998; 16(suppl 1):51-73.
(§3) Nature. […] Unilineage hematopoietic differentiation in bulk and single cell culture. Stem Cells. 1998; 16(suppl 1):51-73).

[3] = system: day 7 (pro/basophilic) erythroblasts
Description: as §1
(§4) FIG. 2. […] After 24 hours the percentage of cell death was determined by ethidium bromide/acridine orange staining.
(§5) Adult peripheral blood human progenitor cell (HPC) purification and culture. Adult peripheral blood was obtained from male donors after their informed consent and the approval by the Committee for Human Studies. Human CD34^+ precursor cells were purified from peripheral blood by positive selection using the midi-MACS immunomagnetic separation system (Miltenyi Biotec, Bergisch Gladbach, Germany) according to the manufacturer's instructions. CD34^+ precursors were cultured in serum-free medium supplemented with 0.01 U/ml interleukin-3 (IL-3), 0.001 ng/ml GM-CSF and 3 U/ml Epo to induce unilineage erythroid differentiation. […] Cell viability was evaluated by ethidium bromide-acridine orange staining and fluorescence microscopy analysis.^15 The differentiation stage of erythroid precursor cells was evaluated by May-Grünwald-Giemsa staining and cytologic analysis. Ziegler B, Testa U, Condorelli G, Vitelli L, Valtieri M, Peschle C. Unilineage hematopoietic differentiation in bulk and single cell culture. Stem Cells. 1998; 16(suppl 1):51-73. For clonogenetic assay, 10^2 CD34^+ cells and 2×10^2 cells from day 5 or day 7 unilineage erythroid cultures were plated in duplicate in 0.9% methylcellulose containing 40% FCS and saturating concentrations of erythropoietin (3 U/mL), TPO (50 ng/mL), granulocyte macrophage-colony stimulating factor (GM-CSF; 10 ng/mL), M-CSF (250 U/mL), G-CSF (500 U/mL), IL-6 (10 ng/mL), stem cell factor (100 ng/mL), Flt3 ligand (100 ng/mL), and IL-3 (100 U/mL). Colonies were scored after 14 days of culture at 37° C. in a 5% CO2/5% O2/90% N2 humidified atmosphere.

[4] = system: day 14 (orthochromatic) erythroblasts; assay: Chemosensitivity of day 14 erythroblasts, cell death by ethidium bromide/acridine orange staining; type: cell-based; settings: 24 hours, 1.5 μg/ml cisplatin or 50 ng/ml camptothecin
Description: as §1, §2, §3

[5] = system: caspase 3, caspase 7 and caspase 8
Description: as §4
(§6) FIG. 4. […] After 48 hours, 4×10^4 cells were washed and replated in standard erythroid medium with or without 100 ng/ml SCF.
Western blotting. For detection of caspases, protein extracts were prepared by resuspending cell pellets in 1% NP40 lysis buffer (20 mM Tris/HCl pH 7.2, 200 mM NaCl, 1% NP40) in the presence of 1 mM phenylmethylsulphonyl fluoride (PMSF) and 2 μg/ml each of leupeptin, aprotinin and pepstatin. Concentration of lysates was determined by the Bradford assay (Bio-Rad Laboratories, Richmond, Calif.) and equal amounts of proteins were used for SDS-PAGE. Samples were analyzed by standard immunoblot procedure and visualized by chemiluminescence (Super Signal West Pico Pierce, Rockford, Ill.). Quantification of protein expression levels was performed with the NIH IMAGE software version 1.62 (by Wayne Rasband, National Institutes of Health, Research Services Branch, NIMH).

[6] = system: CD34 positive cells; assay: Protection of proliferating CD34 positive cells from chemotherapeutic agents in vitro; type: cell-based
Description: as §5

[7] = system: erythroid and granulocytic precursor cells, uncommitted CD34+ progenitors; assay: SCF treatment of purified hematopoietic progenitors and precursors exposed to antineoplastic agents; type: cell-based, human
Description: Purified populations of hematopoietic progenitors and precursors are routinarily obtained in our laboratory through purification of […] cells from peripheral blood and culture in serum-free medium with unilineage growth factors. Hematopoietic progenitor cells display different sensitivity to the cytotoxic effect of chemotherapeutic agents depending on their lineage commitment and stage of maturation. […] The protective effects of SCF are achieved by administrating this cytokine before the cytotoxic treatment, during the course of the treatment itself and after the toxic stimulus has been interrupted. […] Importantly, once the toxic stimulus has been removed, SCF-treated cells re-enter the differentiative pathway, maintaining their ability to complete successfully the normal maturation process.

[8] = system: anti-apoptotic genes belonging to the Bcl-2 family and to the Notch family; assay: Expression of pro- and anti-apoptotic genes in SCF-treated erythroid precursor cells; type: cell-based, human
Description: In order to elucidate the mechanisms responsible for the protective effect of SCF from chemotherapy-induced cell death, we analysed the expression of pro- and anti-apoptotic genes in SCF-treated erythroid precursor cells. SCF induced an upregulation of anti-apoptotic genes belonging to the Bcl-2 family and to the Notch family, as well as an increase in the levels of several transcription factors involved in the control of cellular proliferation and survival.

[9] = system: day 7 erythroblasts; assay: Erythroblast recovery and expansion after removal of cisplatin; type: cell-based
Description: as §6

[10] = system: day 7 erythroid culture cells; assay: Clonogenetic assay of erythroid unilineage culture cells in semisolid medium; type: cell-based, human; settings: two-days treatment with 100 ng/ml SCF (day 5 to day 7)
Description: FIG. 5. […] (A) Clonogenetic assay of CD34^+ cells (day 0) or cells grown in liquid culture and subsequently plated in semisolid medium at day 5 or day 7 of erythroid differentiation. Control cells (day 5 and day 7 Epo) were cultivated in standard erythroid medium before the colony assay, whereas SCF-treated cells (day 7 Epo+SCF) received 100 ng/ml SCF from day 5 to day 7 of liquid culture. (B) Cytofluorimetric analysis of glycophorin A-positive cells in erythroid unilineage culture. Cells were analyzed after five (day 5) or seven days (day 7) of erythroid differentiation in standard erythroid medium (Epo) or in the same medium supplied with 100 ng/ml SCF starting from day 5 (Epo+SCF).
as §2
SCF supports the selective expansion of erythroid cells in unilineage culture conditions after treatment with chemotherapeutic agents. Theoretically, SCF may promote the growth of non-erythroid cells present in small numbers in erythroblastic cultures, and even specifically protect these contaminants from cytotoxic drugs, thus generating a post-chemotherapy population of non-erythroid cells. […]

[11] = system: Bcl-2 and Bcl-XL; assay: Western blot analysis of Bcl-2 and Bcl-XL levels in day 7 erythroblasts; type: cell-based, human; settings: erythroblasts treated for two days with 100 ng/ml SCF versus standard erythroid medium
[12] = in vivo; cited from earlier work

Which “sensitivity of mature polynucleated megakaryocytic precursors versus day 6 immature precursors” value [1] does the source give for `COc1cccc2c1C(=O)c1c(O)c3c(c(O)c1C2=O)C[C@@](O)(C(C)=O)C[C@@H]3O[C@H]1C[C@H](N)[C@H](O)[C@H](C)O1` [Daunorubicin] here?
The value was “more resistant”.

For `CC[C@]1(O)C[C@H]2CN(CCc3c([nH]c4ccccc34)[C@@](C(=O)OC)(c3cc4c(cc3OC)N(C=O)[C@H]3[C@@](O)(C(=O)OC)[C@H](OC(C)=O)[C@]5(CC)C=CCN6CC[C@]43[C@@H]65)C2)C1` [Vincristine], which “sensitivity of mature polynucleated megakaryocytic precursors versus day 6 immature precursors” value [1] is on record?
Its value is “more resistant”.

And the “death of early megakaryocytic cells” value ([1]; day 6 precursors, Vincristine 0.5 micromolar)?
The value was 100%.

What about the “death of late megakaryocytic cells” value ([1]; day 12 precursors, Vincristine 0.5 micromolar) of the same molecule?
The value was 20%.

Which “sensitivity to drug-induced apoptosis” value [2] does the source give for `CC[C@@]1(O)C(=O)OCc2c1cc1n(c2=O)Cc2cc3ccccc3nc2-1` [camptothecin] here?
The value was “modest sensitivity”.

And the “sensitivity to cytotoxic effect of chemotherapeutic agents” value ([3]; day 7 immature erythroblasts, 24 hours, 1.5 μg/ml cisplatin or 50 ng/ml camptothecin, saturating Epo)?
Its value is “extremely sensitive”.

What about the “sensitivity to cytotoxic effect of chemotherapeutic agents” value [4] of the same molecule?
The value was “almost completely resistant”.

And the “caspase activation by cytotoxic drug” value ([5]; day 7 erythroblasts, 8 hours, 200 ng/ml camptothecin, 3 μg/ml cisplatin or 5 μM etoposide)?
The value was “activated caspase 3, 7 and 8”.

Which results are given for `N.N.[Cl][Pt][Cl]` [cisplatin, reference compound]?
death of CD34 positive cells in absence of SCF ([6]; 3 micrograms/mL Cisplatin, proliferating cells (interleukin-3, fms-like tyrosine kinase 3), no SCF): virtually all cells die; sensitivity to drug-induced apoptosis [2]: modest sensitivity

Which “sensitivity of mature polynucleated megakaryocytic precursors versus day 6 immature precursors” value [1] does the source give for `COc1cc([C@@H]2c3cc4c(cc3[C@@H](O[C@@H]3O[C@@H]5CO[C@@H](C)O[C@H]5[C@H](O)[C@H]3O)[C@H]3COC(=O)[C@H]23)OCO4)cc(OC)c1O` [etoposide] here?
The value was “more resistant”.

With “SCF: haematopoietic growth factor, 18.6 KD, ligand of c-Kit; human recombinant SCF purchased from Peprotech” as the molecule, how does the “CD34 positive cells surviving” value ([6]; 3 micrograms/mL Cisplatin, cells induced to proliferate with interleukin-3 (50 units/mL) and fms-like tyrosine kinase 3 (100 nanograms/mL), treated with SCF) read?
Its value is “about 50%”.

And the “expansion and clonogenetic output after removal of chemotherapeutic drugs” value ([6]; SCF-treated cells, clonogenetic assays)?
The value was “able to expand and give rise to all the standard hematopoietic populations”.

And the “protection of CD34 positive cells from cytotoxic activity of chemotherapeutic agents” value ([6]; in vitro, Cisplatin, Etoposide and Daunorubicin)?
Its value is “protects”.

What about the “protection from death induced by antineoplastic agents” value [7] of the same molecule?
The value was “strong protection”.

And the “expression of anti-apoptotic genes of the Bcl-2 family and Notch family” value [8]?
Its value is “upregulation”.

And the “protection of erythroblasts from toxic effects of antineoplastic drugs” value ([3]; 100 ng/ml SCF from day 5 for 48 hours and during exposure, camptothecin, cisplatin or etoposide)?
Its value is “significantly protected”.

What about the “amount of inactive pro-caspase 3, 7 and 8 versus control erythroblasts” value ([5]; pretreated two days with SCF, 8 hours camptothecin, cisplatin or etoposide) of the same molecule?
The value was “significantly higher”.

And the “proliferative activity after removal of the cytotoxic agent” value ([9]; SCF day 5-9, 3 μg/ml cisplatin 48 hours, washed, fresh medium)?
Its value is “regained full proliferative activity”.

And the “proliferation of survived erythroid cells with SCF maintained after drug removal” value ([9]; SCF day 5-21, 3 μg/ml cisplatin 48 hours)?
Its value is “high proliferation rate”.

What about the “survival to cisplatin treatment” value ([9]; preincubated two days with 100 ng/ml SCF, 3 μg/ml cisplatin for 48 hours) of the same molecule?
Its value is “enhanced survival”.

And the “growth of erythroid colonies” value [10]?
The value was “significant stimulatory effect”.

And the “percentage of granulo-monocytic colonies” value [10]?
The value was “did not significantly increase”.

What about the “Bcl-2 and Bcl-XL protein levels” value [11] of the same molecule?
The value was “upregulated”.

And the “protection of megakaryocytic cells from toxic effects of antineoplastic drugs” value ([1]; 100 ng/ml SCF from day 4 for 48 hours and during exposure, Etoposide, Daunorubicin or Vincristine)?
The value was “significantly protected”.

And the tolerability of administration [12]?
Its tolerability of administration is “generally well tolerated”.

With zVAD-fmk [reference compound] as the molecule, how does the “effect on chemotherapy-induced erythroblast death” value ([3]; zVAD 40 μM, camptothecin, cisplatin or etoposide, 24 hours) read?
The value was “abrogated completely”.

What about the “effect on drug-induced caspase activation” value ([5]; zVAD 40 μM, day 7 erythroblasts, 8 hours) of the same molecule?
The value was “abolished caspase activation”.
